Measurements taken from patent US20250073198A1, “COMPOUNDS AND USE THEREOF FOR THE TREATMENT OF DISEASES ASSOCIATED WITH IMPAIRED ß-GALACTOSIDASE ACTIVITY” (DORPHAN SA, priority 2022, published 2025).
pIC50: −log10 of the molar value.

Columns and labels:
cathepsin B = molecular target: T1, cathepsin B (Sus scrofa, UniProt A1E295); test: In-vitro enzymatic activity assay on isolated cathepsin B (pork liver homogenate, Z-FR-AMC substrate); type: biochemical; details: for pIC50: ester prodrug hydrolysed with NaOH to the free acid, 1 hour at 37° C., pH 6.0, read-out: IC50, inhibition of cathepsin B (catB) activity in pork liver homogenate; for inhibitory activity against isolated catB, compared to E64c: pork liver homogenate, result in words
T1 construct: from tissue; host or cells: pork liver homogenate
Experimental: The ability of the compounds VRO006_hydrol, VRO047_hydrol, VRO052_hydrol, VRO059_hydrol, VRO073_hydrol, VRO109_hydrol, VRO244_hydrol, VRO001_hydrol, VRO082_hydrol, VRO035_hydrol, VRO119_hydrol, and VRO243_hydrol to inhibit isolated cathepsin B was assessed in an enzymatic assay and compared to the inhibitory activity of the prior art E64c. In this assay, the compounds VRO006, VRO042, VRO047, VRO052, VRO059, VRO073, VRO109, VRO244, VRO001, VRO082, VRO035, VRO119, and VRO243 were used and the assay was performed in the presence of NaOH, in order to simulate the ester cleavage that occurs within the gastrointestinal tract, and to release the free acid (VROxxx_hydrol compound) from the prodrug (corresponding VROxxx compound). The chemical structures of compounds […], VRO042, VRO047, VRO052, VRO059, VRO073, […] and VRO244 and their chemical names are provided in [Table 2] above. The structures of VRO001, VRO082, VRO035, VRO119 and VRO243 are provided in [Table 3] below. The cathepsin B was from pork liver homogenate.
The enzymatic assay was performed as follows. Samples of homogenized pork liver (75 mg of fresh tissue per sample) were incubated for 1 hour at 37° C. with Z—FR-AMC (benzyloxycarbonyl-L-[…]-4-methylcoumaryl-7-amide) at […] in 1 M sodium acetate pH 6.0, supplemented with 2.5 mM EDTA, 2.5 mM DTT and 0.1% Triton X-100, and graded concentrations of test substances (between 0.1 nM and […]). The stock solutions of test substances were at 20 mM in DMSO. Fluorescence was determined at 445 nm using 365 nm as the excitation wavelength.

[1] = prior art statement; cited from earlier work
[2] = including pediatric patients; cited from earlier work

SMILES	pIC50 (cathepsin B)	inhibitory activity against isolated catB, compared to E64c (cathepsin B)	penetration of the blood-brain barrier [1]	toxicity for human in 3-year clinical trials [2]
CC(C)C[C@H](NC(=O)[C@H]1O[C@@H]1C(=O)O)C(=O)NCCCN1CCCCC1 [VRO059_hydrol, (2S,3S)-3-(((S)-4-methyl-1-oxo-1-((3-(piperidin-1-yl)propyl)amino)pentan-2-yl)carbamoyl)oxirane-2-carboxylic acid]	≥ 7.00	almost similar to E64c	–	–
CC(C)CCNC(=O)C(Cc1ccccn1)NC(=O)C1OC1C(=O)O (stereo not shown) [VRO119_hydrol]	< 7.00	not tolerated	–	–
CC(C)C[C@H](NC(=O)[C@H]1O[C@@H]1C(=O)O)C(=O)NCCc1ccccn1 [VRO052_hydrol, (2S,3S)-3-(((S)-4-methyl-1-oxo-1-((2-(pyridin-2-yl)ethyl)amino)pentan-2-yl)carbamoyl)oxirane-2-carboxylic acid]	≥ 7.00	only slightly reduced	–	–
CCOC(=O)[C@H]1O[C@@H]1C(=O)N[C@@H](CC(C)C)C(=O)NCCC(C)C [Compound E64d]	–	–	low penetration of the blood-brain barrier	non-toxicity for human
COCC(NC(=O)C1OC1C(=O)O)C(=O)NCCC(C)C (stereo not shown) [VRO082_hydrol]	< 7.00	did not allow to maintain the inhibitory activity	–	–
CC(C)C[C@H](NC(=O)[C@H]1O[C@@H]1C(=O)O)C(=O)NCc1ccccc1F [VRO073_hydrol, (2S,3S)-3-(((S)-1-((2-fluorobenzyl)amino)-4-methyl-1-oxopentan-2-yl)carbamoyl)oxirane-2-carboxylic acid]	≥ 7.00	only slightly reduced	–	–
O=C(NCc1ccccc1F)[C@H](CC(F)(F)F)NC(=O)[C@H]1O[C@@H]1C(=O)O [VRO244_hydrol, (2S,3S)-3-(((S)-4,4,4-trifluoro-1-((2-fluorobenzyl)amino)-1-oxobutan-2-yl)carbamoyl)oxirane-2-carboxylic acid]	≥ 7.00	only slightly lower than the prior art E64c	–	–

Further lines, with some results ahead:

pIC50 (cathepsin B)	inhibitory activity against isolated catB, compared to E64c (cathepsin B)	SMILES	penetration of the blood-brain barrier [1]	toxicity for human in 3-year clinical trials [2]
≥ 7.00	–	CC(C)CCN(C)C(=O)[C@H](CC(C)C)NC(=O)[C@H]1O[C@@H]1C(=O)O [VRO006_hydrol, (2S,3S)-3-(((S)-1-(isopentyl(methyl)amino)-4-methyl-1-oxopentan-2-yl)carbamoyl)oxirane-2-carboxylic acid]	–	–
≥ 7.00	increased compared to E64c	CC(C)CCNC(=O)[C@H](CC(F)(F)F)NC(=O)[C@H]1O[C@@H]1C(=O)O [VRO109_hydrol, (2S,3S)-3-(((S)-4,4,4-trifluoro-1-(isopentylamino)-1-oxobutan-2-yl)carbamoyl)oxirane-2-carboxylic acid]	–	–
< 7.00	unable to inhibit catB	CC(C)CCNC(=O)C(CC(C)C)N(C)C(=O)C1OC1C(=O)O (stereo not shown) [VRO001_hydrol]	–	–
≥ 7.00	almost the same activity as E64c	COCCNC(=O)[C@H](CC(C)C)NC(=O)[C@H]1O[C@@H]1C(=O)O [VRO047_hydrol, (2S,3S)-3-(((S)-1-((2-2-methoxyethyl)amino)-4-methyl-1-oxopentan-2-yl)carbamoyl)oxirane-2-carboxylic acid]	–	–
< 7.00	inhibitory activity was lost	CC(C)CC(NC(=O)C1OC1C(=O)O)C(=O)NCCC(F)(F)F (stereo not shown) [VRO035_hydrol]	–	–
–	quite similar to the one of E64c	CCOC(=O)[C@H]1O[C@@H]1C(=O)N[C@@H](CC(C)C)C(=O)N(C)CCC(C)C [VRO006, Ethyl (2S,3S)-3-(((S)-1-(isopentyl(methyl)amino)-4-methyl-1-oxopentan-2-yl)carbamoyl)oxirane-2-carboxylate]	–	–
< 7.00	drastic loss of activity	CC(C)CCN(C)C(=O)C(CC(F)(F)F)NC(=O)C1OC1C(=O)O (stereo not shown) [VRO243_hydrol]	–	–
≥ 7.00	maintaining efficient inhibition of catB	COCCCNC(=O)[C@H](CC(C)C)NC(=O)[C@H]1O[C@@H]1C(=O)O [VRO042_hydrol, (2S,3S)-3-(((S)-1-((3-3-methoxypropyl)amino)-4-methyl-1-oxopentan-2-yl)carbamoyl)oxirane-2-carboxylic acid]	–	–
